Earlier results on five molecules are cited in article PMC4703502 (Pharmacology & therapeutics, 2015).

One data set relates to inhibin B. The note with it: in vivo; ref Tash et al., 2008a.
A further data set deals with fertility. The note with it: ref Tash et al., 2008.
The next data set concerns spermatozoa. The settings on record: ref O’Rand & Widgren, 2012.

Read-outs that look alike come from different tables or passages of the source.

Take `O=C(NCCCCCCCCNC(=O)C(Cl)Cl)C(Cl)Cl` [WIN 18,446]: the effect on spermatogenesis result in the data set with spermatogenesis (ref Amory et al., 2011) is recorded as “completely stops spermatogenesis”.

As to `O=C(O)/C=C/c1nn(Cc2ccc(Cl)cc2Cl)c2cc(C(F)(F)F)ccc12` [Gamendazole], in the data set with inhibin B, the “serum levels of inhibin B” value is listed as “fall below measurable levels”. For the same molecule, the fertility recovery in the data set on fertility (daily treatment with 6 mg/kg during 7 days) is on record as 29%. Further, in the data set on fertility (rats, 3 mg/kg single oral dose), the fertility recovery result is reported as “complete recovery” and the infertility entry is “not complete infertility”.

As to `CC1(C)CC=C(c2cnc3ccccc3c2)c2cc(C(=O)Nc3ccc(C(=O)O)cc3)ccc21` [BMS-195614], in the data set on spermatogenesis (tested in vivo, ref Chung et al., 2013), the effect on spermatogenesis result was “no effect”.

For BMS-189453, the effect on spermatogenesis result in the data set on spermatogenesis (ref Chung et al., 2011) is given as “inhibit spermatogenesis”.

B1: SEMG1: semenogelin, seminal plasma protein that binds EPPIN on the sperm surface (protein, UniProt P04279 24-462, looked up)
Semenogelin-1: QKGGSKGRLPSEFSQFPHGQKGQHYSGQKGKQQTESKGSFSIQYTYHVDANDHDQSRKSQQYDLNALHKTTKSQRHLGGSQQLLHNKQEGRDHDKSKGHFHRVVIHHKGGKAHRGTQNPSQDQGNSPSGKGISSQYSNTEERLWVHGLSKEQTSVSGAQKGRKQGGSQSSYVLQTEELVANKQQRETKNSHQNKGHYQNVVEVREEHSSKVQTSLCPAHQDKLQHGSKDIFSTQDELLVYNKNQHQTKNLNQDQQHGRKANKISYQSSSTEERRLHYGENGVQKDVSQSSIYSQTEEKAQGKSQKQITIPSQEQEHSQKANKISYQSSSTEERRLHYGENGVQKDVSQRSIYSQTEKLVAGKSQIQAPNPKQEPWHGENAKGESGQSTNREQDLLSHEQKGRHQHGSHGGLDIVIIEQEDDSDRHLAQHLNNDRNPLFT
Consider B1, for which the “decrease in internal calcium levels” value in the data set with spermatozoa (3μM SEMG1) was more than 30%. Further, the “time to decrease in internal pH” value in the data set on spermatozoa (SEMG1 bound to EPPIN on the sperm surface) was “less than 1 minute”.
